Patent US20210330611A1, “THERAPY FOR NEUROLOGICAL DISEASES/DISORDERS” (priority 2020, published 2021)
Counter-ions that a name gives are not always drawn. Like-named read-outs stand apart in the source and are kept apart here.

Tests used:
[1] = system: primary rat microglia; experiment: Cell toxicity (dead cells, size <150 μm2) in LPS assay; conditions: primary microglia HTS
[2] = system: LPS-induced microglia activation; experiment: Image-based assay of LPS-induced microglia activation (HTS and dose response); type: cell-based, rat; conditions: primary microglia HTS; for inhibition at 10 µM: Rattus norvegicus, Microglia, read-out: LPS % inhibition
[3] = system: primary rat microglia; experiment: Cell toxicity (dead cells, size <150 μm2) in coated fibrin (cFib) assay; conditions: primary microglia HTS;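 also: share of dead cells sized under 150 µm2 at 10 µM in fibrin-stimulated microglia HTS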
[4] = system: fibrin- and LPS-induced microglia activation; experiment: cells; type: cell-based, rat
[5] = system: fibrin-induced microglia activation; experiment: Image-based assay of fibrin-induced microglia activation (HTS and dose response); type: cell-based, rat; conditions: primary microglia HTS; for inhibition at 10 µM: Rattus norvegicus, Microglia, read-out: Fibrin % inhibition
[6] = LPS stimulation, decreased size (<150 μm^2) as marker of toxicity
[7] = 48 h, LPS stimulation, increased cell size (>800 μm^2) as marker of activation
[8] = fibrin stimulation, decreased size (<150 μm^2) as marker of toxicity
[9] = quadrant by fibrin and LPS inhibition in HTS of 1907 compounds
[10] = fibrin stimulation, increased cell size (>800 μm^2) as marker of activation
[11] = 10 μM, LPS assay, cell size <150 μm^2 as marker of toxicity
[12] = 10 μM, LPS-stimulated, cell size >800 μm^2 as marker of activation
[13] = 10 μM, fibrin assay, cell size <150 μm^2 as marker of toxicity
[14] = HTS of 1907 compounds, quadrant by fibrin and LPS inhibition
[15] = 10 μM, fibrin-stimulated, cell size >800 μm^2 as marker of activation
[16] = LPS stimulation, increased cell size (>800 μm^2) as marker of activation

Row | Structure (SMILES) | LPS % cell toxicity [1, 6] | inhibition at 10 µM [2, 7] | Fibrin % cell toxicity [3, 8] | Quadrant (FIG. 5b) [4, 9] | inhibition at 10 µM [5, 10] | also measured
1 | O=C(O)CCc1nc(-c2ccccc2)c(-c2ccccc2)o1 [Oxaprozin] | 1% | 15% | 1% | Q4 | 0% | 
2 | CCCCN1C[C@H](O)[C@@H](O)[C@H](O)[C@H]1CO [Miglustat] | 0% | 0% | 1% | Q4 | -6% | 
3 | O=[N+]([O-])OCC(CO[N+](=O)[O-])O[N+](=O)[O-] [Nitroglycerin] | 1% | 17% | 1% | Q4 | 2% | 
4 | Oc1ccc(OCc2ccccc2)cc1 [Monobenzone] | 0% | 16% | 1% | Q4 | 7% | 
5 | COc1ccc(CN2CCN(C(c3ccc(F)cc3)c3ccc(F)cc3)CC2)c(OC)c1OC [Lomerizine, Lomerizine Dihydrochloride] |  |  |  | Q4 |  | LPS % cell toxicity ([1]; LPS stimulation, toxicity = cell size <150 μm2): 0%; LPS % inhibition ([2]; LPS stimulation, activation = cell size >800 μm2): 8%; Fibrin % cell toxicity ([3]; fibrin stimulation, toxicity = cell size <150 μm2): 1%; Fibrin % inhibition ([5]; fibrin stimulation, activation = cell size >800 μm2): −5%
6 | Cc1cc2cc3c(C)cc(=O)oc3c(C)c2o1 [Trioxsalen] |  |  |  |  |  | LPS % cell toxicity [1, 11]: 0%; inhibition at 10 µM [2, 12]: 18%; Fibrin % cell toxicity [3, 13]: 1%; Quadrant (FIG. 5b) [4, 14]: Q4; inhibition at 10 µM [5, 15]: -18%
7 | CCCOc1ccccc1-c1nc2nn[nH]c2c(=O)[nH]1 [Zaprinast] |  |  |  |  |  | LPS % cell toxicity [1, 11]: 0%; inhibition at 10 µM [2, 12]: 13%; Fibrin % cell toxicity [3, 13]: 1%; Quadrant (FIG. 5b) [4, 14]: Q4; inhibition at 10 µM [5, 15]: -34%
8 | CCN(CC)CCNC(=O)c1cc(Cl)c(N)cc1OC [Metoclopramide] | 0% | 12% | 1% | Q4 | -2% | 
9 | C[C@H]1O[C@@H](O[C@H]2CC[C@@]3(C)[C@H](CC[C@@H]4[C@@H]3C[C@@H](O)[C@]3(C)[C@@H](C5=CC(=O)OC5)CC[C@]43O)C2)C[C@H](O)[C@@H]1O[C@H]1C[C@H](O)[C@H](O[C@H]2C[C@H](O)[C@H](O[C@@H]3O[C@H](CO)[C@@H](O)[C@H](O)[C@H]3O)[C@@H](C)O2)[C@@H](C)O1 [Deslanoside] | 1% | 67% | 1% | Q1 | -3% | 
10 | NC(=O)c1cc([N+](=O)[O-])cc([N+](=O)[O-])c1 [Nitromide] | 0% |  | 0% | Q4 |  | LPS % inhibition [2, 16]: 11%; Fibrin % inhibition [5, 10]: −7%
11 | CCN(CC)CCNC(=O)c1ccc(NC(C)=O)cc1.Cl | 1% |  | 0% | Q4 |  | LPS % inhibition [2, 16]: 9%; Fibrin % inhibition [5, 10]: −11%
12 | COc1ccc(/C=C/C(=O)Nc2ccccc2C(=O)O)cc1OC [Tranilast] |  |  |  |  |  | LPS % cell toxicity [1, 11]: 0%; inhibition at 10 µM [2, 12]: 22%; Fibrin % cell toxicity [3, 13]: 0%; Quadrant (FIG. 5b) [4, 14]: Q4; inhibition at 10 µM [5, 15]: 35%
